Source: ChEMBL document CHEMBL1201861, “Genomics of Drug Sensitity in Cancer screening data, Wellcome Trust Sanger Institute”

Legend:
Assay in all cases: cells
Assay type in all cases: functional, cell-based, Homo sapiens
EW-22 = test system: EW-22;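 also: growth inhibition of the EW-22 cell line, measured with a cell viability readout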
Description: SANGER: Inhibition of human EW-22 cell growth in a cell viability assay.

MDA-MB-157 = test system: MDA-MB-157
Description: SANGER: Inhibition of human MDA-MB-157 cell growth in a cell viability assay.

ESS-1 = test system: ESS-1;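 also: growth inhibition of human ESS-1 cells, read out by a cell viability assay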
Description: SANGER: Inhibition of human ESS-1 cell growth in a cell viability assay.

SK-MES-1 = test system: SK-MES-1;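 also: growth inhibition of human SK-MES-1 cells, read out with a cell viability assay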
Description: SANGER: Inhibition of human SK-MES-1 cell growth in a cell viability assay.

SW1710 = test system: SW1710;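 also: growth inhibition of SW1710 cells, determined with a cell viability assay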
Description: SANGER: Inhibition of human SW1710 cell growth in a cell viability assay.

G-402 = test system: G-402
Description: SANGER: Inhibition of human G-402 cell growth in a cell viability assay.

CAL-12T = test system: CAL-12T;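 also: growth inhibition of human CAL-12T cells, read out with a cell viability assay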
Description: SANGER: Inhibition of human CAL-12T cell growth in a cell viability assay.

PANC-03-27 = test system: PANC-03-27
Description: SANGER: Inhibition of human PANC-03-27 cell growth in a cell viability assay.

CFPAC-1 = test system: CFPAC-1;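 also: cell viability readout used to gauge suppression of CFPAC-1 cell proliferation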
Description: SANGER: Inhibition of human CFPAC-1 cell growth in a cell viability assay.

RVH-421 = test system: RVH-421
Description: SANGER: Inhibition of human RVH-421 cell growth in a cell viability assay.

T47D = test system: T47D;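 also: growth inhibition of human T47D cells, measured with a cell viability assay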
Description: SANGER: Inhibition of human T47D cell growth in a cell viability assay.

Capan-2 = test system: Capan-2;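 also: Capan-2 cell growth inhibition, read out with a viability assay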
Description: SANGER: Inhibition of human Capan-2 cell growth in a cell viability assay.

COLO-792 = test system: COLO-792
Description: SANGER: Inhibition of human COLO-792 cell growth in a cell viability assay.

SW756 = test system: SW756;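 also: growth inhibition of human SW756 cells, read out with a cell viability assay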
Description: SANGER: Inhibition of human SW756 cell growth in a cell viability assay.

LCLC-97TM1 = test system: LCLC-97TM1;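 also: cell viability assay measuring growth inhibition of human LCLC-97TM1 cells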
Description: SANGER: Inhibition of human LCLC-97TM1 cell growth in a cell viability assay.

SW1463 = test system: SW1463;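 also: growth inhibition of SW1463 cells, determined with a cell viability assay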
Description: SANGER: Inhibition of human SW1463 cell growth in a cell viability assay.

HCC1569 = test system: HCC1569;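 also: growth inhibition of human HCC1569 cells, read out with a cell viability assay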
Description: SANGER: Inhibition of human HCC1569 cell growth in a cell viability assay.

NCI-H520 = test system: NCI-H520;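 also: growth inhibition of NCI-H520 cells, measured by a cell viability assay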
Description: SANGER: Inhibition of human NCI-H520 cell growth in a cell viability assay.

T-24 = test system: T-24;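 also: growth inhibition of T-24 cells, read out with a cell viability assay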
Description: SANGER: Inhibition of human T-24 cell growth in a cell viability assay.

SW1990 = test system: SW1990;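 also: cell growth inhibition determined with a viability assay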
Description: SANGER: Inhibition of human SW1990 cell growth in a cell viability assay.

EFO-27 = test system: EFO-27;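 also: growth inhibition of EFO-27 cells, read out with a cell viability assay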
Description: SANGER: Inhibition of human EFO-27 cell growth in a cell viability assay.

KYSE-410 = test system: KYSE-410;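 also: growth inhibition of KYSE-410 cells, measured through a cell viability readout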
Description: SANGER: Inhibition of human KYSE-410 cell growth in a cell viability assay.

5637 = test system: 5637
Description: SANGER: Inhibition of human 5637 cell growth in a cell viability assay.

OVCAR-5 = test system: OVCAR-5;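 also: growth inhibition of human OVCAR-5 cells, read out with a cell viability assay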
Description: SANGER: Inhibition of human OVCAR-5 cell growth in a cell viability assay.

HuO-3N1 = test system: HuO-3N1;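 also: cell viability readout used to measure how strongly compounds suppress proliferation of human HuO-3N1 cells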
Description: SANGER: Inhibition of human HuO-3N1 cell growth in a cell viability assay.

D-566MG = test system: D-566MG
SN12C = test system: SN12C;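 also: growth inhibition of human SN12C cells, measured by a cell viability assay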
Description: SANGER: Inhibition of human SN12C cell growth in a cell viability assay.

UO-31 = test system: UO-31;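 also: cell viability assay measuring inhibition of cell growth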
Description: SANGER: Inhibition of human U031 cell growth in a cell viability assay.

HCC70 = test system: HCC70;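 also: cell viability assay measuring how strongly the compound suppresses proliferation of HCC70 cells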
Description: SANGER: Inhibition of human HCC70 cell growth in a cell viability assay.

VM-CUB-1 = test system: VM-CUB-1;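 also: cell viability assay measuring growth inhibition of the human VM-CUB-1 cell line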
Description: SANGER: Inhibition of human VM-CUB-1 cell growth in a cell viability assay.

CAL-54 = test system: CAL-54;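 also: growth inhibition of CAL-54 cells, read out by a viability measurement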
Description: SANGER: Inhibition of human CAL-54 cell growth in a cell viability assay.

IGROV-1 = test system: IGROV-1;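 also: reduction of IGROV-1 cell growth, read out with a viability assay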
Description: SANGER: Inhibition of human IGROV-1 cell growth in a cell viability assay.

NCI-H28 = test system: NCI-H28;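 also: growth inhibition of human NCI-H28 cells, read out as cell viability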
Description: SANGER: Inhibition of human NCI-H28 cell growth in a cell viability assay.

HuP-T4 = test system: HuP-T4;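 also: cell viability assay measuring how much HuP-T4 cell growth is inhibited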
Description: SANGER: Inhibition of human HuP-T4 cell growth in a cell viability assay.

MOLT-13 = test system: MOLT-13;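 also: IC50 for suppression of MOLT-13 cell growth, read out with a cell viability assay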
Description: SANGER: Inhibition of human MOLT-13 cell growth in a cell viability assay.

## CS(=O)(=O)c1ccc(C(=O)Nc2ccc(Cl)c(-c3ccccn3)c2)c(Cl)c1 [VISMODEGIB]
EW-22; Homo sapiens, EW-22
  IC50: > 10 µM
MDA-MB-157; Homo sapiens, MDA-MB-157
  IC50: > 10 µM
ESS-1; Homo sapiens, ESS-1
  IC50: > 10 µM
SK-MES-1; Homo sapiens, SK-MES-1
  IC50: > 10 µM
SW1710; Homo sapiens, SW1710
  IC50: > 10 µM
G-402; Homo sapiens, G-402
  IC50: > 10 µM
CAL-12T; Homo sapiens, CAL-12T
  IC50: > 10 µM
PANC-03-27; Homo sapiens, PANC-03-27
  IC50: > 10 µM
CFPAC-1; Homo sapiens, CFPAC-1
  IC50: > 10 µM
RVH-421; Homo sapiens, RVH-421
  IC50: > 10 µM
T47D; Homo sapiens, T47D
  IC50: > 10 µM
Capan-2; Homo sapiens, Capan-2
  IC50: > 10 µM
COLO-792; Homo sapiens, COLO-792
  IC50: > 10 µM
SW756; Homo sapiens, SW756
  IC50: > 10 µM
LCLC-97TM1; Homo sapiens, LCLC-97TM1
  IC50: > 10 µM
SW1463; Homo sapiens, SW1463
  IC50: > 10 µM
HCC1569; Homo sapiens, HCC1569
  IC50: > 10 µM
NCI-H520; Homo sapiens, NCI-H520
  IC50: > 10 µM
T-24; Homo sapiens, T-24
  IC50: > 10 µM
SW1990; Homo sapiens, SW1990
  IC50: > 10 µM
EFO-27; Homo sapiens, EFO-27
  IC50: > 10 µM
KYSE-410; Homo sapiens, KYSE-410
  IC50: > 10 µM
5637; Homo sapiens
  IC50: > 10 µM
OVCAR-5; Homo sapiens, OVCAR-5
  IC50: > 10 µM
HuO-3N1; Homo sapiens, HuO-3N1
  IC50: 9.6 µM
D-566MG; Homo sapiens, D-566MG
  IC50: > 10 µM
SN12C; Homo sapiens, SN12C
  IC50: > 10 µM
UO-31; Homo sapiens, UO-31
  IC50: > 10 µM
HCC70; Homo sapiens, HCC70
  IC50: > 10 µM
VM-CUB-1; Homo sapiens, VM-CUB-1
  IC50: > 10 µM
CAL-54; Homo sapiens, CAL-54
  IC50: > 10 µM
IGROV-1; Homo sapiens, IGROV-1
  IC50: 0.0725 µM
NCI-H28; Homo sapiens, NCI-H28
  IC50: > 10 µM
HuP-T4; Homo sapiens, HuP-T4
  IC50: > 10 µM

## CISPLATIN
EW-22; ew-22
  IC50: 2.08 µM
MDA-MB-157; mda-mb-157
  IC50: 290 µM
ESS-1; ess-1
  IC50: 2.54 µM
SK-MES-1; sk-mes-1
  IC50: 129 µM
SW1710; sw1710
  IC50: 44.4 µM
MOLT-13; molt-13
  IC50: 381 µM
G-402; g-402
  IC50: 7.11 µM
CAL-12T; cal-12t
  IC50: 625 µM
PANC-03-27; panc-03-27
  IC50: 38.3 µM
CFPAC-1; cfpac-1
  IC50: 35.2 µM
RVH-421; rvh-421
  IC50: 40.6 µM
T47D; t47d
  IC50: 129 µM
Capan-2; capan-2
  IC50: 243 µM
COLO-792; colo-792
  IC50: 5.73 µM
SW756; sw756
  IC50: 9.26 µM
LCLC-97TM1; lclc-97tm1
  IC50: 19.8 µM
SW1463; sw1463
  IC50: 189 µM
HCC1569; hcc1569
  IC50: 455 µM
NCI-H520; nci-h520
  IC50: 72.8 µM
T-24; t-24
  IC50: 5.56 µM
SW1990; sw1990
  IC50: 9.71 µM
EFO-27; efo-27
  IC50: 13.2 µM
KYSE-410; kyse-410
  IC50: 515 µM
5637
  IC50: 4.52 µM
OVCAR-5; ovcar-5
  IC50: 4.02 µM
HuO-3N1; huo-3n1
  IC50: 8.87 µM
D-566MG; d-566mg
  IC50: 3.48 µM
SN12C; sn12c
  IC50: 17.1 µM
UO-31; uo-31
  IC50: 12.9 µM
HCC70; hcc70
  IC50: 9.92 µM
VM-CUB-1; vm-cub-1
  IC50: 6.3 µM
CAL-54; cal-54
  IC50: 12.2 µM
IGROV-1; igrov-1
  IC50: 0.343 µM
NCI-H28; nci-h28
  IC50: 117 µM
HuP-T4; hup-t4
  IC50: 37.4 µM

## COc1cc2c(Nc3ccc(NC(=O)c4ccccc4)cc3)ncnc2cc1OCCCN1CCOCC1
EW-22; Homo sapiens, EW-22
  IC50: 3.18 µM
MDA-MB-157; Homo sapiens, MDA-MB-157
  IC50: > 4 µM
ESS-1; Homo sapiens, ESS-1
  IC50: > 4 µM
SK-MES-1; Homo sapiens, SK-MES-1
  IC50: > 4 µM
SW1710; Homo sapiens, SW1710
  IC50: > 4 µM
MOLT-13; Homo sapiens, MOLT-13
  IC50: 1.57 µM
G-402; Homo sapiens, G-402
  IC50: > 4 µM
CAL-12T; Homo sapiens, CAL-12T
  IC50: > 4 µM
PANC-03-27; Homo sapiens, PANC-03-27
  IC50: > 4 µM
CFPAC-1; Homo sapiens, CFPAC-1
  IC50: > 4 µM
RVH-421; Homo sapiens, RVH-421
  IC50: > 4 µM
T47D; Homo sapiens, T47D
  IC50: > 4 µM
Capan-2; Homo sapiens, Capan-2
  IC50: > 4 µM
COLO-792; Homo sapiens, COLO-792
  IC50: > 4 µM
SW756; Homo sapiens, SW756
  IC50: > 4 µM
LCLC-97TM1; Homo sapiens, LCLC-97TM1
  IC50: 2.18 µM
SW1463; Homo sapiens, SW1463
  IC50: > 4 µM
HCC1569; Homo sapiens, HCC1569
  IC50: > 4 µM
NCI-H520; Homo sapiens, NCI-H520
  IC50: > 4 µM
T-24; Homo sapiens, T-24
  IC50: > 4 µM
SW1990; Homo sapiens, SW1990
  IC50: > 4 µM
EFO-27; Homo sapiens, EFO-27
  IC50: > 4 µM
KYSE-410; Homo sapiens, KYSE-410
  IC50: > 4 µM
5637; Homo sapiens
  IC50: > 4 µM
OVCAR-5; Homo sapiens, OVCAR-5
  IC50: > 4 µM
HuO-3N1; Homo sapiens, HuO-3N1
  IC50: > 4 µM
D-566MG; Homo sapiens, D-566MG
  IC50: 1.79 µM
SN12C; Homo sapiens, SN12C
  IC50: > 4 µM
UO-31; Homo sapiens, UO-31
  IC50: > 4 µM
HCC70; Homo sapiens, HCC70
  IC50: > 4 µM
VM-CUB-1; Homo sapiens, VM-CUB-1
  IC50: 2.63 µM
CAL-54; Homo sapiens, CAL-54
  IC50: > 4 µM
IGROV-1; Homo sapiens, IGROV-1
  IC50: > 4 µM
NCI-H28; Homo sapiens, NCI-H28
  IC50: > 4 µM
HuP-T4; Homo sapiens, HuP-T4
  IC50: > 4 µM
